Tests used:
[1] = tested on: FLC-resistant Candida auris; test: Checkerboard (dose-response matrix) with fluconazole, FICI; type: cell-based; settings: fractional inhibitory concentration index for enhancement of FLC activity in FLC-resistant Candida auris; <0.5 strong synergy, 2 = no synergy
Experimental: Generally, the synergy is measured by determining the fractional inhibitory concentration (FIC) value of the combination. […] FIC values for both agents in a particular square/well are calculated in this way followed by determination of the FIC index (sum of the FICs of each agent in the particular square/well).
(§1) Compound potency was assessed alone by dose response assays or in combination with another compound by dose-response matrixes in 96-well plates, or 384-well, flat-bottom, microtiter plates (Corning) as previously described. Plates were incubated at 30° C. for the indicated time period. Growth was quantified by measuring OD600 and corrected for medium background. All strains were assessed in biological duplicate experiments with technical duplicates. Growth was normalized to untreated controls and plotted as a heat map using Java TreeView 1.1.6r4. For dose-response matrixes fractional inhibitory concentration index at 90% growth inhibition (FICI90) was calculated as previously described. The fluconazole Etest susceptibility assay was performed as previously described. Briefly, 200 μL of 5×10^6 cells/mL were plated on YPD agar (1%) plates with either with 50 μM azoffluxin or containing DMSO.

C. auris = test: microbe, parasite or virus in culture; type: cell-based, Candida auris; settings: Candidozyma auris; Etest; read-out: fluconazole MIC in absence of azoffluxin
Experimental: FIGS. 2A-2E illustrate the above-described screening of the BU-CMD which identified azoffluxin as a fluconazole (FLC) potentiator against C. auris. […] Growth, as determined by optical density at 600 nm (OD600), is plotted in the presence of each CMD compound alone on the y-axis and in combination with FLC on the x-axis. Dotted lines represent 7-median absolute deviations from the median for each condition. […] FIG. 2B depicts the synergistic interactions. […] Growth was measured by the OD600 and normalized to the no drug control (see color bar). The fractional inhibitory concentration index (FICI) was calculated to determine the chemical interaction, with a value below 0.5 indicating synergy. […] FIG. 2D depicts FLC Etest strips in the presence and absence of 50 μM azoffluxin. A total of 1×10^6 C. auris cells were added to YPD agar plates, the E-test strip was added, and plates were incubated at 30° C. for 24 hours prior to imaging. FIG. 2. […] Dose-response assay where a two-fold dilution of azoffluxin was titered starting from 50 μM. Indicated titrations have a background concentration of FLC of 32 μg/mL, 4 μg/mL, 0.25 μg/mL, and 0.5 μg/mL for C. auris Ci6684 (Erg11Y132F), C. albicans (SN95), C. glabrata (BG2) or S. cerevisiae (BY4741), respectively. […] Dose response assays were incubated for 48 hours at 30° C. in RPMI. Growth in each well was plotted by the relative optical density to the respective no drug control (See color bar in FIG. 2B).
as §1, with “Growth was normalized to untreated controls and plotted as a heat map using Java TreeView 1.1.6r4.” left out, “The fluconazole Etest susceptibility assay was performed as previously described. Briefly, 200 μL of 5×10^6 cells/mL were plated on YPD agar (1%) plates with either with 50 μM azoffluxin or containing DMSO.” left out

In the case of `C=C(C)C[C@@H](O)COc1cc2c(cc1C1(c3cc4c(cc3OC[C@H](O)CC(=C)C)OCO4)C(=O)Nc3c(F)cccc31)OCO2` [CMLD012436, 7-fluoro-3,3-bis(6-(((R)-2-hydroxy-4-methylpent-4-en-1-yl)oxy)benzo[d][1,3]dioxol-5-yl)indolin-2-one], the FICI [1] is reported as 0.175.

With `O=C1Nc2ccccc2C1(c1ccc(O)cc1)c1ccc(O)cc1` [Oxyphenisatin, oxyphenisatin, reference compound] the FICI [1] was 2.

`C=CCC[C@@H](O)COc1cc2c(cc1C1(c3cc4c(cc3OC[C@H](O)CCC=C)OCO4)C(=O)Nc3c(F)cccc31)OCO2` [CMLD012449, 7-fluoro-3,3-bis(6-(((R)-2-hydroxyhex-5-en-1-yl)oxy)benzo[d][1,3]dioxol-5-yl)indolin-2-one] showed an FICI [1] of 0.113.

`CC[C@@H](O)COc1cc2c(cc1C1(c3cc4c(cc3OC[C@H](O)CC)OCO4)C(=O)Nc3cc(F)ccc31)OCO2` [CMLD012394, 6-fluoro-3,3-bis(6-((R)-2-hydroxybutoxy)benzo[d][1,3]dioxol-5-yl)indolin-2-one] was tested, and the FICI [1] was 0.266.

`OC(Cn1cncn1)(Cn1cncn1)c1ccc(F)cc1F` [fluconazole, reference compound] was tested, and the MIC (C. auris) was greater than 256 µg/mL.

Reference: patent publication US11773086B2, “Fungal modulators” (TRUSTEES OF BOSTON UNIVERSITY, priority 2020, dated 2023)
